Results: BindingDB's records for doi:10.1021/jm300847w (Amgen, 2012)

Assay: Inhibition of PI3Kdelta in B-cells by proliferation assay

| IC50 [nM] | SMILES |
| --- | --- |
| 0.5 | C[C@H](Nc1ncnc2nc[nH]c12)c1cc2cccc(Cl)c2nc1-c1cscn1 |
| 2 | Cc1cccc2nc(-c3ccccc3Cl)c(Cn3nc(C#N)c4c(N)ncnc43)nc12 |
